We go through one molecule from US20220081387A1, “METHODS FOR PREPARING AMMONIUM TETRATHIOMOLYBDATE” (Alexion Pharmaceuticals, Inc., priority 2019, published 2022).

Series [1] in a line: ATTM solubility in sample solution (HPLC), methanol, ethanol and purified water. The series is classed as physicochemical. To be noted: ethanol, purified water. The method, then:
The ATTM solubility was measured in sample solution (HPLC), methanol, ethanol and purified water.

A short description of series [2]: Long-term stability study of ATTM samples, determined by HPLC. The series is classed as physicochemical. Particulars: after 6 months, by HPLC. Here is the method:
ATTM Samples 1 and 2 were prepared essentially according to procedure in Example 1 starting with 12 kg of ammonium heptamolybdate. The isolated product was packed and stored immediately. Specifically, the samples were packaged corresponding to the packaging of the bulk material under argon in transparent anti-static polyethylene plastic bags, 90 10 10, 110 mm×170 mm, and the bags containing the samples were sealed with a plastic tie, and then subsequently packed in welded aluminium bags along with a drying agent in-between the two bags. Additional samples were packaged with ambient atmosphere in transparent anti-static polyethylene plastic bags, 90 10 10, 110 mm×170 mm. The bags containing the samples were sealed with a plastic tie, and then subsequently packed in welded aluminium bags along with a drying agent in-between the two bags.

Structures are written as SMILES.

`[NH4+].[NH4+].[SH-].[SH-].[S]=[Mo]=[S]` [ATTM, Ammonium tetrathiomolybdate]: the ATTM solubility result in series [1] was “lowest in alcohols, particularly in ethanol, and higher in water”. Also, in series [2], the “degradation of ATTM on storage” value was “no significant degradation”.
